Patent US8952024B2, “Herbicidal pyrimidone derivatives” (E I du Pont de Nemours and Company, priority 2009, dated 2015)
Where two headings read alike, the source gives them in different places.

What was measured:
Experiment in all cases: Test B pre-/postemergence plant response
Type in all cases: in vivo
[1] = test system: lambsquarters (Chenopodium album); conditions: for pest or weed control at 31 g/ha: 31 g ai/ha; for pest or weed control at 125 g/ha: 125 g ai/ha
Procedure, shortened: (§1)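 Greenhouse herbicide screen. Pre- and postemergence (1- to 4-leaf) spray of compound in solvent/surfactant mixture; loam–sand soil for pre, peat/vermiculite medium for post. Visual control rating 0–100 at 13 to 15 days after treatment.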

[2] = test system: large crabgrass (Digitaria sanguinalis); conditions: for pest or weed control at 31 g/ha: 31 g ai/ha; for pest or weed control at 125 g/ha: 125 g ai/ha
Procedure, shortened: as §1

[3] = test system: morningglory (Ipomoea coccinea)
Procedure, shortened: as §1

[4] = test system: pigweed (Amaranthus retroflexus); conditions: for pest or weed control at 31 g/ha: 31 g ai/ha; for pest or weed control at 125 g/ha: 125 g ai/ha
Procedure, shortened: as §1

[5] = test system: soybean (Glycine max); conditions: for plant injury at 125 g/ha: 125 g ai/ha
Procedure, shortened: as §1

[6] = test system: velvetleaf (Abutilon theophrasti); conditions: for pest or weed control at 125 g/ha: 125 g ai/ha
Procedure, shortened: as §1

[7] = test system: wild oat (Avena fatua); conditions: for pest or weed control at 31 g/ha: 31 g ai/ha; for pest or weed control at 125 g/ha: 125 g ai/ha
Procedure, shortened: as §1

[8] = test system: woolly cupgrass (Eriochloa villosa); conditions: for pest or weed control at 31 g/ha: 31 g ai/ha; for pest or weed control at 125 g/ha: 125 g ai/ha
Procedure, shortened: as §1

[9] = test system: yellow nutsedge (Cyperus esculentus); conditions: for pest or weed control at 31 g/ha: 31 g ai/ha; for pest or weed control at 125 g/ha: 125 g ai/ha
Procedure, shortened: as §1

[10] = Preemergence, 250 g ai/ha, 0 to 100 scale
[11] = 62 g ai/ha, postemergence, 0 is no effect, 100 is complete control, 13 to 15 days

Compound: O=C1CCCC(O)=C1C(=O)c1cnc(-c2cccnc2)n(-c2ccccc2)c1=O [Compound 113, 5-[(2-hydroxy-6-oxo-1-cyclohexen-1-yl)carbonyl]-3-phenyl-2-(3-pyridinyl)-4(3H)-pyrimidone]
- pest or weed control at 31 g/ha ([1]; Chenopodium album, post-emergence, postemergence, scale 0 to 100, 0 is no effect, 100 is complete control, read-out: Plant response rating, Lambsquarters): 95%
- pest or weed control at 125 g/ha ([1]; Chenopodium album, post-emergence, Postemergence, scale 0 to 100 (0 no effect, 100 complete control), read-out: Plant response rating, Lambsquarters): 98%
- pest or weed control at 250 g/ha ([1]; Chenopodium album, post-emergence, Postemergence, 250 g ai/ha, scale 0 to 100 (0 no effect, 100 complete control), read-out: Plant response rating, Lambsquarters): 98%
- pest or weed control at 31 g/ha ([1]; Chenopodium album, pre-emergence, Preemergence, scale 0 to 100 (0 no effect, 100 complete control), read-out: Plant response rating, Lambsquarters): 98%
- pest or weed control at 62 g/ha ([1]; Chenopodium album, pre-emergence, Preemergence, 62 g ai/ha, scale 0 to 100, 0 no effect, 100 complete control, read-out: Plant response rating, Lambsquarters): 100%
- pest or weed control at 125 g/ha ([1]; Chenopodium album, pre-emergence, Preemergence, scale 0 to 100, 0 no effect, 100 complete control, read-out: Plant response rating, Lambsquarters): 100%
- Lambsquarters plant response rating [1, 10]: 100
- Crabgrass, Large plant response rating (0 to 100 scale) [2, 11]: 90
- pest or weed control at 31 g/ha ([2]; Digitaria sanguinalis, post-emergence, postemergence, scale 0 to 100, 0 is no effect, 100 is complete control, read-out: Plant response rating, Crabgrass, Large): 85%
- pest or weed control at 125 g/ha ([2]; Digitaria sanguinalis, post-emergence, Postemergence, scale 0 to 100 (0 no effect, 100 complete control), read-out: Plant response rating, Crabgrass, Large): 95%
- pest or weed control at 250 g/ha ([2]; Digitaria sanguinalis, post-emergence, Postemergence, 250 g ai/ha, scale 0 to 100 (0 no effect, 100 complete control), read-out: Plant response rating, Crabgrass, Large): 95%
- pest or weed control at 31 g/ha ([2]; Digitaria sanguinalis, pre-emergence, Preemergence, scale 0 to 100 (0 no effect, 100 complete control), read-out: Plant response rating, Crabgrass, Large): 70%
- pest or weed control at 62 g/ha ([2]; Digitaria sanguinalis, pre-emergence, Preemergence, 62 g ai/ha, scale 0 to 100, 0 no effect, 100 complete control, read-out: Plant response rating, Crabgrass, Large): 98%
- pest or weed control at 125 g/ha ([2]; Digitaria sanguinalis, pre-emergence, Preemergence, scale 0 to 100, 0 no effect, 100 complete control, read-out: Plant response rating, Crabgrass, Large): 100%
- Crabgrass, Large plant response rating [2, 10]: 100
- Morningglory plant response rating (0 to 100 scale) [3, 11]: 100
- pest or weed control at 31 g/ha ([3]; Ipomoea, post-emergence, 31 g ai/ha, postemergence, scale 0 to 100, 0 is no effect, 100 is complete control, read-out: Plant response rating, Morningglory): 98%
- pest or weed control at 125 g/ha ([3]; Ipomoea, post-emergence, Postemergence, 125 g ai/ha, scale 0 to 100 (0 no effect, 100 complete control), read-out: Plant response rating, Morningglory): 100%
- pest or weed control at 250 g/ha ([3]; Ipomoea, post-emergence, Postemergence, 250 g ai/ha, scale 0 to 100 (0 no effect, 100 complete control), read-out: Plant response rating, Morningglory): 100%
- Pigweed plant response rating (0 to 100 scale) [4, 11]: 100
- pest or weed control at 31 g/ha ([4]; Amaranthus retroflexus, post-emergence, postemergence, scale 0 to 100, 0 is no effect, 100 is complete control, read-out: Plant response rating, Pigweed): 95%
- pest or weed control at 125 g/ha ([4]; Amaranthus retroflexus, post-emergence, Postemergence, scale 0 to 100 (0 no effect, 100 complete control), read-out: Plant response rating, Pigweed): 100%
- pest or weed control at 250 g/ha ([4]; Amaranthus retroflexus, post-emergence, Postemergence, 250 g ai/ha, scale 0 to 100 (0 no effect, 100 complete control), read-out: Plant response rating, Pigweed): 100%
- pest or weed control at 31 g/ha ([4]; Amaranthus retroflexus, pre-emergence, Preemergence, scale 0 to 100 (0 no effect, 100 complete control), read-out: Plant response rating, Pigweed): 98%
- pest or weed control at 62 g/ha ([4]; Amaranthus retroflexus, pre-emergence, Preemergence, 62 g ai/ha, scale 0 to 100 (0 no effect, 100 complete control), read-out: Plant response rating, Pigweed): 98%
- pest or weed control at 125 g/ha ([4]; Amaranthus retroflexus, pre-emergence, Preemergence, scale 0 to 100, 0 no effect, 100 complete control, read-out: Plant response rating, Pigweed): 100%
- Pigweed plant response rating [4, 10]: 100
- Soybean plant response rating (0 to 100 scale) [5, 11]: 98
- plant injury at 125 g/ha ([5]; Glycine max, post-emergence, Postemergence, scale 0 to 100 (0 no effect, 100 complete control), read-out: Plant response rating, Soybean): 98%
- plant injury at 250 g/ha ([5]; Glycine max, post-emergence, Postemergence, 250 g ai/ha, scale 0 to 100 (0 no effect, 100 complete control), read-out: Plant response rating, Soybean): 98%
- plant injury at 31 g/ha ([5]; Glycine max, pre-emergence, Preemergence, 31 g ai/ha, scale 0 to 100 (0 no effect, 100 complete control), read-out: Plant response rating, Soybean): 0%
- plant injury at 62 g/ha ([5]; Glycine max, pre-emergence, Preemergence, 62 g ai/ha, scale 0 to 100, 0 no effect, 100 complete control, read-out: Plant response rating, Soybean): 65%
- plant injury at 125 g/ha ([5]; Glycine max, pre-emergence, Preemergence, scale 0 to 100, 0 no effect, 100 complete control, read-out: Plant response rating, Soybean): 85%
- Soybean plant response rating [5, 10]: 90
- Velvetleaf plant response rating (0 to 100 scale) [6, 11]: 95
- pest or weed control at 125 g/ha ([6]; Abutilon theophrasti, post-emergence, 360 h, Postemergence, scale 0 to 100 (0 no effect, 100 complete control), read-out: Plant response rating, Velvetleaf): 98%
- pest or weed control at 250 g/ha ([6]; Abutilon theophrasti, post-emergence, 360 h, Postemergence, 250 g ai/ha, scale 0 to 100 (0 no effect, 100 complete control), read-out: Plant response rating, Velvetleaf): 98%
- pest or weed control at 31 g/ha ([6]; Abutilon theophrasti, pre-emergence, 360 h, Preemergence, 31 g ai/ha, scale 0 to 100 (0 no effect, 100 complete control), read-out: Plant response rating, Velvetleaf): 80%
- pest or weed control at 62 g/ha ([6]; Abutilon theophrasti, pre-emergence, 360 h, Preemergence, 62 g ai/ha, scale 0 to 100 (0 no effect, 100 complete control), read-out: Plant response rating, Velvetleaf): 100%
- pest or weed control at 125 g/ha ([6]; Abutilon theophrasti, pre-emergence, 360 h, Preemergence, scale 0 to 100, 0 no effect, 100 complete control, read-out: Plant response rating, Velvetleaf): 100%
- Velvetleaf plant response rating [6, 10]: 100
- Oat, Wild plant response rating (0 to 100 scale) [7, 11]: 40
- pest or weed control at 31 g/ha ([7]; Avena fatua, post-emergence, postemergence, scale 0 to 100, 0 is no effect, 100 is complete control, read-out: Plant response rating, Oat, Wild): 20%
- pest or weed control at 125 g/ha ([7]; Avena fatua, post-emergence, Postemergence, scale 0 to 100 (0 no effect, 100 complete control), read-out: Plant response rating, Oat, Wild): 45%
- pest or weed control at 250 g/ha ([7]; Avena fatua, post-emergence, Postemergence, 250 g ai/ha, scale 0 to 100 (0 no effect, 100 complete control), read-out: Plant response rating, Oat, Wild): 85%
- pest or weed control at 31 g/ha ([7]; Avena fatua, pre-emergence, Preemergence, scale 0 to 100 (0 no effect, 100 complete control), read-out: Plant response rating, Oat, Wild): 0%
- pest or weed control at 62 g/ha ([7]; Avena fatua, pre-emergence, Preemergence, 62 g ai/ha, scale 0 to 100 (0 no effect, 100 complete control), read-out: Plant response rating, Oat, Wild): 5%
- pest or weed control at 125 g/ha ([7]; Avena fatua, pre-emergence, Preemergence, scale 0 to 100, 0 no effect, 100 complete control, read-out: Plant response rating, Oat, Wild): 20%
- Oat, Wild plant response rating [7, 10]: 40
- Cupgrass, Woolly plant response rating (0 to 100 scale) [8, 11]: 85
- pest or weed control at 31 g/ha ([8]; Eriochloa villosa, post-emergence, postemergence, scale 0 to 100, 0 is no effect, 100 is complete control, read-out: Plant response rating, Cupgrass, Woolly): 85%
- pest or weed control at 125 g/ha ([8]; Eriochloa villosa, post-emergence, Postemergence, scale 0 to 100 (0 no effect, 100 complete control), read-out: Plant response rating, Cupgrass, Woolly): 95%
- pest or weed control at 250 g/ha ([8]; Eriochloa villosa, post-emergence, Postemergence, 250 g ai/ha, scale 0 to 100 (0 no effect, 100 complete control), read-out: Plant response rating, Cupgrass, Woolly): 95%
- pest or weed control at 31 g/ha ([8]; Eriochloa villosa, pre-emergence, Preemergence, scale 0 to 100 (0 no effect, 100 complete control), read-out: Plant response rating, Cupgrass, Woolly): 5%
- pest or weed control at 62 g/ha ([8]; Eriochloa villosa, pre-emergence, Preemergence, 62 g ai/ha, scale 0 to 100, 0 no effect, 100 complete control, read-out: Plant response rating, Cupgrass, Woolly): 50%
- pest or weed control at 125 g/ha ([8]; Eriochloa villosa, pre-emergence, Preemergence, scale 0 to 100, 0 no effect, 100 complete control, read-out: Plant response rating, Cupgrass, Woolly): 85%
- Cupgrass, Woolly plant response rating [8, 10]: 95
- Nutsedge, Yellow plant response rating (0 to 100 scale) [9, 11]: 75
- pest or weed control at 31 g/ha ([9]; Cyperus, post-emergence, postemergence, scale 0 to 100, 0 is no effect, 100 is complete control, read-out: Plant response rating, Nutsedge, Yellow): 65%
- pest or weed control at 125 g/ha ([9]; Cyperus, post-emergence, Postemergence, scale 0 to 100 (0 no effect, 100 complete control), read-out: Plant response rating, Nutsedge, Yellow): 75%
- pest or weed control at 250 g/ha ([9]; Cyperus, post-emergence, Postemergence, 250 g ai/ha, scale 0 to 100 (0 no effect, 100 complete control), read-out: Plant response rating, Nutsedge, Yellow): 75%
- pest or weed control at 31 g/ha ([9]; Cyperus, pre-emergence, Preemergence, scale 0 to 100 (0 no effect, 100 complete control), read-out: Plant response rating, Nutsedge, Yellow): 65%
- pest or weed control at 62 g/ha ([9]; Cyperus, pre-emergence, Preemergence, 62 g ai/ha, scale 0 to 100 (0 no effect, 100 complete control), read-out: Plant response rating, Nutsedge, Yellow): 80%
- pest or weed control at 125 g/ha ([9]; Cyperus, pre-emergence, Preemergence, scale 0 to 100, 0 no effect, 100 complete control, read-out: Plant response rating, Nutsedge, Yellow): 90%
- Nutsedge, Yellow plant response rating [9, 10]: 90
